Laboratory results taken from patent publication US20220241228A1, “Treatment of cholangiopathies” (CymaBay Therapeutics, Inc., priority 2021, published 2022).
Read-outs that look alike come from different tables or passages of the source.

Key:
PBC patients [1] = conditions: 12-month trial, cited from earlier work
subjects with PSC = test: Randomized placebo-controlled 24-week trial in primary sclerosing cholangitis (Example 2); type: in vivo, human; conditions: 5, 10, or 20 mg/day orally once/day for 24 weeks
Procedure: Trial subjects are adult, male or female, with a diagnosis of PSC by at least two of the following three criteria: (a) historical evidence of an elevated AP >ULN from any prior laboratory result, (b) liver biopsy consistent with PSC, and (c) abnormal cholangiography consistent with PSC as measured by MRCP, ERCP, or percutaneous transhepatic cholangiography; on a stable and recommended dose of UDCA ≤20 mg/Kg/day for the past six months or at least twelve weeks off UDCA treatment; and intolerant of, or having an inadequate response to, obeticholic acid and/or a fibrate. Other criteria include ALP ≥1.5×ULN, TBIL ≤2×ULN, ALT and AST both ≤5×ULN, eGFR >60 mL/min/1.73 m^2, platelets ≥140×10^3/μL, INR ≤1.3 (in the absence of warfarin or other anticoagulant therapy), and albumin ≥3.5 g/dL. Exclusion criteria include clinically significant acute or chronic liver disease of an etiology other than PSC, a diagnosis of overlapping autoimmune hepatitis (AIH) and PSC, secondary or IgG4 related sclerosing cholangitis, small duct PSC, presence of a cholangiocarcinoma on cholangiography or MRI, bile duct stenting, history, evidence, or high suspicion of cholangiocarcinoma or other hepatobiliary malignancy, presumptive or diagnosed acute cholangitis within twelve weeks, and evidence of compensated or decompensated cirrhosis. […]

[2] = test system: patients with primary biliary cholangitis; conditions: over a 52-week period; cited from earlier work
PPARα = molecular target: T1, PPARα (Homo sapiens, UniProt Q07869); test: Specificity of seladelpar compared with PPARα; type: biochemical; conditions: PPARδ versus PPARα
T1 sequence (Q07869 1-468): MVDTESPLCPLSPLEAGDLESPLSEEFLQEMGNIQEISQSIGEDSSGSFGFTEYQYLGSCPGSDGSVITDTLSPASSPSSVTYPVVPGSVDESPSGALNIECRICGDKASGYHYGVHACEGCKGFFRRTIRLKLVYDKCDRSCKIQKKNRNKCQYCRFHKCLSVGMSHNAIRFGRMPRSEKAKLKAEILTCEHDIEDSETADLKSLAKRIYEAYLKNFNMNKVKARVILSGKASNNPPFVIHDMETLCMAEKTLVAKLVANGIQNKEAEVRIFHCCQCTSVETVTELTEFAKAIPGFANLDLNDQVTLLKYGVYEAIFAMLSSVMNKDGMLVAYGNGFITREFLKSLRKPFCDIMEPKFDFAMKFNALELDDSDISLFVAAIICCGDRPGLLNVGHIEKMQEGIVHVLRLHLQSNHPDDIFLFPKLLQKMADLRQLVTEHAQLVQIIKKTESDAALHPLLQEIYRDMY
From the text: It is specific (>600-fold and >2500-fold compared with PPARα and PPARγ receptors). PPARδ activation stimulates fatty acid oxidation and utilization, improves plasma lipid and lipoprotein metabolism, glucose utilization, and mitochondrial respiration, and preserves stem cell homeostasis.

[3] = test system: Subjects with primary biliary cholangitis; test: Pooled open-label Phase 2 and placebo-controlled Phase 3 studies of seladelpar in PBC subjects intolerant of, or with inadequate response to, obeticholic acid and/or a fibrate; type: in vivo, human; conditions: for Composite endpoint met / ALP ≤ ULN / Mean change in ALT / Mean change in TBIL / Mean change in ALP: three months; for Composite endpoint met: ALP <1.67×ULN, >15% decrease in ALP, and TBIL ULN; for Mean change in ALP: from baseline
From the text: The trial subjects were adult, male or female, with a diagnosis of PBC by at least two of the following three criteria: (a) a history of ALP above the upper limit of normal (ULN) for at least six months, (b) positive anti-mitochondrial antibody titers > 1/40 on immunofluorescence or M2 positive by enzyme linked immunosorbent assay or positive PBC-specific antinuclear antibodies, and (c) documented liver biopsy result consistent with PBC, on a stable and recommended dose of UDCA for the past twelve months or UDCA intolerant, and ALP ≥1.67×ULN. Exclusion criteria included AST or ALT ≥3×ULN, TBIL ≥2×ULN, autoimmune hepatitis or a history of chronic viral hepatitis, PSC, the current use of fibrates or simvastatin, the use of colchicine, methotrexate, azathioprine, or systemic steroids in the previous two months, the use of an experimental treatment for PBC, and the use of an experimental or unapproved immunosuppressant. […] Efficacy was assessed on subjects treated for three months. The composite endpoint was the responder rate for subjects achieving ALP <1.67×ULN, >15% decrease in ALP, and TBIL ULN. Additional endpoints were ALP ULN, ALP change from baseline, and other markers of liver function. Safety was assessed over one year. […] Fifty-one subjects were treated for 3 months; and 37 were assessed; with results in the table below: A safety analysis was performed on all 71 subjects.

PBC patients [4] = conditions: cited from earlier work
[5] = PBC subjects intolerant of, or inadequate response to, obeticholic acid and/or a fibrate

For CC[C@H]1[C@@H](O)[C@@H]2[C@H](CC[C@]3(C)[C@@H]([C@H](C)CCC(=O)O)CC[C@@H]23)[C@@]2(C)CC[C@@H](O)C[C@@H]12 [OCA, 6α-ethylchenodeoxycholic acid], which “patients with severe pruritus” value (PBC patients [1]; OCALIVA 10 mg arm) is on record?
The value was 23%.

And the “patients with severe pruritus” value (PBC patients [1]; OCALIVA titration arm)?
The value was 19%.

What does the source list for CCO[C@H](COc1ccc(C(F)(F)F)cc1)CSc1ccc(OCC(=O)O)c(C)c1 [Seladelpar, [4-({(2R)-2-ethoxy-3-[4-(trifluoromethyl)phenoxy]propyl}sulfanyl)-2-methylphenoxy]acetic acid]?
ALP (subjects with PSC): dose-related reductions; PSC-related symptoms (subjects with PSC): improvements; ALP and GGT [2]: statistically significant decreases; ALT [2]: statistically significant decrease; total bilirubin levels [2]: stable; specificity compared with PPARα (PPARα): > 600 fold; Pruritus adverse events experienced ([3]; 5 mg/day orally once/day): 15%; Composite endpoint met ([3]; 5 mg/day orally once/day as L-lysine dihydrate salt): 40%; ALP ≤ ULN ([3]; 5 mg/day orally once/day): 0; Mean change in ALT ([3]; 5 mg/day orally once/day): −13%; Mean change in TBIL ([3]; 5 mg/day orally once/day): −3%; Mean change in ALP ([3]; 5 mg/day orally once/day): −31%; subjects who experienced a serious adverse event ([3]; 5 mg/day, safety analysis on all 71 subjects, all unrelated to seladelpar): three; subjects who discontinued treatment due to adverse events ([3]; 5 mg/day, safety analysis on all 71 subjects, one ALT/AST elevation, one gastroesophageal reflux disease): two; Pruritus adverse events experienced ([3]; 10 mg/day orally once/day): 7%; Composite endpoint met ([3]; 10 mg/day orally once/day as L-lysine dihydrate salt): 79%; ALP ≤ ULN ([3]; 10 mg/day orally once/day): 21%; Mean change in ALT ([3]; 10 mg/day orally once/day): −21%; Mean change in TBIL ([3]; 10 mg/day orally once/day): −9%; Mean change in ALP ([3]; 10 mg/day orally once/day): −45%; biochemical markers of cholestasis [3, 5]: meaningful improvement; safety and tolerability [3, 5]: safe, well tolerated

Which “patients reported to be intolerant to treatment” value (PBC patients [4]) does the source give for C[C@H](CCC(=O)O)[C@H]1CC[C@H]2[C@@H]3[C@@H](O)C[C@@H]4C[C@H](O)CC[C@]4(C)[C@H]3CC[C@]12C [UDCA, ursodeoxycholic acid] here?
The value was “about 5%”.
